Data published in patent US10206937B2, “Boronic acid derivatives and therapeutic uses thereof” (Qpex Biopharma, Inc., priority 2014, dated 2019).

System: strains of Enterobacteriaceae producing various carbapenemases (class A, D and B; 104 strains)
Experiment: Antibiotics potentiation by Compound 27 (MIC; meropenem, doripenem, ertapenem, cefepime)
Format: cell-based
Details: + 27 = with Compound 27 at fixed 4 μg/ml

`C[C@@H](O)[C@H]1C(=O)N2C(C(=O)O)=C(S[C@@H]3CN[C@H](C(=O)N(C)C)C3)[C@H](C)[C@H]12` [M] was tested, and the MIC (strain CF1012 Citrobacter freundii (KPC-2)) was “Y (MIC of 1 μg/mL to 10 μg/mL)”, the MIC (strain CF1021 Citrobacter freundii (CMY-type; VIM-1)) was “Y (MIC of 1 μg/mL to 10 μg/mL)” and the MIC (strain CF1022 Citrobacter freundii (SHV-12(2be), TEM-OSBL(2b); IMP-8)) was “Y (MIC of 1 μg/mL to 10 μg/mL)”. For the same compound, the MIC (strain CF1023 Citrobacter freundii (SHV-12(2be), TEM-OSBL(2b); CTX-M-3; CMY-34; NDM-1)) was “Z (MIC of greater than 10 μg/mL)”, the MIC (strain CL1080 Enterobacter cloacae (IMP-1)) was “Y (MIC of 1 μg/mL to 10 μg/mL)” and the MIC (strain EA1019 Enterobacter aerogenes (SHV-5, VIM-1)) was “Z (MIC of greater than 10 μg/mL)”. For the same compound, the MIC (strain EC1007 Escherichia coli (KPC-3)) was “X (MIC of less than 1 μg/mL)”, the MIC (strain EC1061 Escherichia coli (NDM-1, CMY-6)) was “Z (MIC of greater than 10 μg/mL)” and the MIC (strain EC1062 Escherichia coli (OXA-48, CTX-M-15)) was “X (MIC of less than 1 μg/mL)”. The MIC (strain EC1064 Escherichia coli (NDM-1, CMY-6, CTX-M-15)) was “Z (MIC of greater than 10 μg/mL)”, the MIC (strain EC1065 Escherichia coli (IMP-1)) was “Y (MIC of 1 μg/mL to 10 μg/mL)” and the MIC (strain EC1068 Escherichia coli (VIM-1)) was “Z (MIC of greater than 10 μg/mL)”. The MIC (strain EC1069 Escherichia coli (CTX-M-27; NDM-1)) was “Z (MIC of greater than 10 μg/mL)”, the MIC (strain EC1070 Escherichia coli (TEM-OSBL(2b); CMY-42; NDM-5)) was “Z (MIC of greater than 10 μg/mL)” and the MIC (strain EC1072 Escherichia coli (CTX-M-3; NDM-1)) was “Z (MIC of greater than 10 μg/mL)”. For the same compound, the MIC (strain ECL1004 Enterobacter cloacae (NMC-A)) was “Y (MIC of 1 μg/mL to 10 μg/mL)”, the MIC (strain ECL1026 Enterobacter cloacae (KPC-2, TEM-1)) was “Y (MIC of 1 μg/mL to 10 μg/mL)” and the MIC (strain ECL1036 Enterobacter cloacae (KPC-3, TEM-1)) was “Y (MIC of 1 μg/mL to 10 μg/mL)”. The MIC (strain ECL1045 Enterobacter cloacae (VIM-1)) was “Y (MIC of 1 μg/mL to 10 μg/mL)”, the MIC (strain ECL1055 Enterobacter cloacae (KPC-3, TEM)) was “Y (MIC of 1 μg/mL to 10 μg/mL)” and the MIC (strain ECL1057 Enterobacter cloacae (NDM-1, TEM-1, CTX-M-15)) was “Z (MIC of greater than 10 μg/mL)”. The MIC (strain ECL1058 Enterobacter cloacae (KPC-3, SHV-11, TEM-1)) was “Z (MIC of greater than 10 μg/mL)”, the MIC (strain ECL1059 Enterobacter cloacae (KPC-3, SHV-12, TEM-1)) was “Y (MIC of 1 μg/mL to 10 μg/mL)” and the MIC (strain ECL1061 Enterobacter cloacae (KPC-3, Hyper AmpC expression)) was “Z (MIC of greater than 10 μg/mL)”. For the same compound, the MIC (strain ECL1082 Enterobacter cloacae (VIM-1)) was “Z (MIC of greater than 10 μg/mL)”, the MIC (strain ECL1084 Enterobacter cloacae (CTX-M-15; ACT-16; NDM-1)) was “Z (MIC of greater than 10 μg/mL)” and the MIC (strain ECL1085 Enterobacter cloacae (SHV-31(2be), TEM-1(2b); CTX-M-15; NDM-1)) was “Z (MIC of greater than 10 μg/mL)”. The MIC (strain ECL1086 Enterobacter cloacae (VIM-31, OXA-48(c))) was “Y (MIC of 1 μg/mL to 10 μg/mL)”, the MIC (strain ECL1087 Enterobacter cloacae (VIM-1)) was “Z (MIC of greater than 10 μg/mL)” and the MIC (strain ECL1088 Enterobacter cloacae (TEM-1(2b); CTX-M-14; ACT-type; VIM-1)) was “Z (MIC of greater than 10 μg/mL)”. The MIC (strain ECL1089 Enterobacter cloacae (ACT-type; IMP-1)) was “Z (MIC of greater than 10 μg/mL)”, the MIC (strain ECL1090 Enterobacter cloacae (TEM-1(2b); CTX-M-22; ACT-type; IMP-8)) was “Y (MIC of 1 μg/mL to 10 μg/mL)” and the MIC (strain ECL1091 Enterobacter cloacae (VIM-1)) was “Z (MIC of greater than 10 μg/mL)”. For the same compound, the MIC (strain ECL1092 Enterobacter cloacae (TEM-OSBL(2b); ACT-32; VIM-1)) was “Y (MIC of 1 μg/mL to 10 μg/mL)”, the MIC (strain ECL1093 Enterobacter cloacae (TEM-OSBL(2b); ACT-32; VIM-1)) was “Y (MIC of 1 μg/mL to 10 μg/mL)” and the MIC (strain ECL1094 Enterobacter cloacae (VIM-1)) was “Z (MIC of greater than 10 μg/mL)”. The MIC (strain ECL1096 Enterobacter cloacae (CMY-4, VIM-4, OXA-48(c))) was “Y (MIC of 1 μg/mL to 10 μg/mL)”, the MIC (strain ECL1097 Enterobacter cloacae (SHV-31(2be), TEM-OSBL(2b); CTX-M-15; ACT-31; NDM-1)) was “Z (MIC of greater than 10 μg/mL)” and the MIC (strain ECL1098 Enterobacter cloacae (TEM-OSBL(2b); DHA-1; ACT-16; NDM-1)) was “Z (MIC of greater than 10 μg/mL)”. For the same compound, the MIC (strain KP1001 Klebsiella pneumoniae (KPC TEM SHV)) was “Z (MIC of greater than 10 μg/mL)”, the MIC (strain KP1002 Klebsiella pneumoniae (KPC TEM SHV)) was “Y (MIC of 1 μg/mL to 10 μg/mL)” and the MIC (strain KP1003 Klebsiella pneumoniae (KPC TEM SHV)) was “Y (MIC of 1 μg/mL to 10 μg/mL)”. For the same compound, the MIC (strain KP1004 Klebsiella pneumoniae (KPC-2, TEM-1, SHV-11)) was “Z (MIC of greater than 10 μg/mL)”, the MIC (strain KP1008 Klebsiella pneumoniae (KPC-2)) was “Y (MIC of 1 μg/mL to 10 μg/mL)” and the MIC (strain KP1014 Klebsiella pneumoniae (VIM-1, TEM, SHV)) was “Y (MIC of 1 μg/mL to 10 μg/mL)”. For the same compound, the MIC (strain KP1054 Klebsiella pneumoniae (VIM-1, SHV-11)) was “Z (MIC of greater than 10 μg/mL)”, the MIC (strain KP1059 Klebsiella pneumoniae (VIM-1, SHV-11)) was “Z (MIC of greater than 10 μg/mL)” and the MIC (strain KP1061 Klebsiella pneumoniae (KPC-3, SHV-11, TEM-1)) was “Z (MIC of greater than 10 μg/mL)”. The MIC (strain KP1064 Klebsiella pneumoniae (KPC-2, SHV-11, TEM-1)) was “Z (MIC of greater than 10 μg/mL)”, the MIC (strain KP1065 Klebsiella pneumoniae (VIM-1, SHV-11)) was “Y (MIC of 1 μg/mL to 10 μg/mL)” and the MIC (strain KP1070 Klebsiella pneumoniae (KPC-2, SHV-11, TEM-1)) was “Z (MIC of greater than 10 μg/mL)”. The MIC (strain KP1074 Klebsiella pneumoniae (KPC-3, SHV-11, TEM)) was “Z (MIC of greater than 10 μg/mL)”.
